From patent publication US11767332B2, “Glucose-sensitive albumin-binding derivatives” (Novo Nordisk A/S, priority 2017, dated 2023)
Entries after “also recorded” stand apart in the source; their conditions may differ.

Key:
[1] = Alizarin red (ARS) assay, glucose binding affinity; conditions: 20 mM phosphate buffer pH 7.4, room temperature
Protocol: (§1) The alizarin-red binding assay is a colorimetric assay used to determine the inhibition affinity of boronate compounds to glucose. The assay is based on a colour shift of alizarin-red upon binding to boronate, which shift can be followed by change in absorbance in the 330-340 nm region.
(§2) After 5 minutes of centrifugation at 4000 rpm, the plate is placed in a multi-well spectrometer (SpectraMax, Molecular Devices) for absorption detection.
(§3) The analysis is carried out at room temperature with absorption readings at 330, 340 and 520 nm, respectively. Data obtained for absorption versus concentration of boronate is then fitted (Prism 7, GraphPad) with a sigmoidal function to obtain the Kd value of boronate and ARS.
(§4) Upon complete dissolution of the compound, 200 μM of Alizarin red (ARS) is added to the solution. The ARS-boronate solution is then aliquoted into a 96 multiwell plate (black, flat and clear bottom) 1:1 with appropriate carbohydrate. In particular, D-glucose and L-lactate solutions are prepared in a 20 mM phosphate buffer pH 7.4 at these concentrations respectively: 1000, 500, 250, 100, 50, 25, 10, 5, 2.5, 1, 0.25, 0.1 mM and 2500, 1000, 500, 100, 50, 10, 5, 1, 0.5, 0.1, 0.05, 0.01 mM. The plate with ARS-boronate mixed with carbohydrate is incubated 20 minutes at room temperature. After 5 minutes of centrifugation at 4000 rpm the plate is placed in a multiwell spectrometer (Spectra Max, Molecular Devices) for absorption detection.
(§5) The analysis is carried out at room temperature with absorption readings at 330, 340 and 520 nm, respectively.

[2] = Alizarin red (ARS) assay, lactate binding affinity; conditions: 20 mM phosphate buffer pH 7.4, room temperature, N.D. = not detectable
Protocol: as §1, §2, §3, §4, §5

[3] = target: human serum albumin (HSA) (Homo sapiens (Human), UniProt P02768); experiment: Fluorine (19F) NMR assay, glucose-sensitive albumin binding; conditions: 0.1 mM compound, 1 mM HSA, 50 mM glucose, pH 7.4
Protocol: Diboron compound is dissolved at a 0.1 mM concentration in a 50 mM phosphate buffer pH 7.4, 10% deuterated water (D2O), and mixed with 0, 0.1, 0.2, 0.5, 1 and 2 mM human serum albumin (HSA). An additional sample with diboron compound in the presence of 1 mM HSA and 50 mM glucose is prepared.
The samples are then placed into 3 mm standard NMR tube (Bruker) and transferred for analysis to a 400 Mhz Bruker spectrometer equipped with a cryoprobe suitable for fluorine detection. The experiment is carried out with standard Bruker zgflqn pulse sequence at room temperature with enough scans to have a S/N ratio over 50 for the 0 mM HSA sample. The spectra are processed, visualized and compared by TopSpin program (Bruker).
The binding of diboron compound to HSA is qualitatively assessed by decrease of the fluorine signal of the diboron compound upon binding to HSA. Release of the diboron compound from HSA upon addition of glucose is assessed by reappearance/increase of fluorine signal in the spectra.

[4] = Glucose affinity by 13C NMR assay; conditions: 1 mM glucose and 1 mM boronate, pH 7.4, 10 mM phosphate buffer, read-out: Binding Affinity [Kd Glucose (mM)] measured by 13C-NMR
Source text: The ^13C Glucose assay is an NMR based assay that takes advantage of the slow chemical shift exchange between the unbound glucose (A state) and the glucose bound to diboronates (B state). If
In a slow exchange regime NMR signals from both states (A and B) are observed and reflect the distinct chemical shifts of the two states as there is not significant interconversion in the timescale of the NMR experiments. Therefore the intensity of each peak directly reports on the population of that state.
The dissociation constant (Kd) could be defined as Kd=([A][B])/[AB], given At as the total concentration of specie A and Bt as total concentration of specie B, in the case in which At−Bt, the product at the equilibrium AB is given by the following equation:
[formula] so that knowing At, Bt and AB at the equilibrium is possible to determine Kd. […]
The samples are then investigated with a standard Carbon HSQC in a Bruker NMR instrument (RT, 32 scans). The intensities of the peaks of free glucose and glucose bound to boronates are determined by the use of TOPSPIN program (Bruker). Difference between intensity of free glucose and glucose bound peaks gives the concentration of product AB at the equilibrium so that Kd can be calculated using equation 1.

Sequence of human serum albumin (HSA) (P02768 25-609): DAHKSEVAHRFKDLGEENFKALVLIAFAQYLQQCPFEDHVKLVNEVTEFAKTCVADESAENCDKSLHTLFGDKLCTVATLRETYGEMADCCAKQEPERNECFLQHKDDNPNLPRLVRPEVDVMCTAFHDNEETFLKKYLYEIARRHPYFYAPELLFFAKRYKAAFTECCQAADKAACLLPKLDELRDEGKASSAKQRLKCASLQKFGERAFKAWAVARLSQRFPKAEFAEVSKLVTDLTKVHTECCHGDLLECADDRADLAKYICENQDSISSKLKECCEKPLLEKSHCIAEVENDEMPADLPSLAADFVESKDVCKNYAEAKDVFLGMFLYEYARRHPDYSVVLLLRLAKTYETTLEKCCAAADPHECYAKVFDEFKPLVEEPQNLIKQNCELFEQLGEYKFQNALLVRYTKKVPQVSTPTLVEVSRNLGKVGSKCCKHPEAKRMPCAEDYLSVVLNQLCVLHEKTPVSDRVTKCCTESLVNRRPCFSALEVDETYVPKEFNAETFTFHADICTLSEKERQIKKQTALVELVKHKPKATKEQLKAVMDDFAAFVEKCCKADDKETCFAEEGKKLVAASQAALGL

SMILES | Kd [1] [mM] | Kd [2] [mM] | Kd [4] [mM] | Glucose-dependent binding to albumin (19F-NMR signal) [3]
NC(=O)CN(CCNC(=O)c1ccc(B(O)O)c(F)c1)C(=O)c1ccc(B(O)O)c(F)c1 [Example 3, N,N′-bis(4-borono-3-fluorobenzamido)-N-ethyl-glycine amide] | 2.7 | 16 | – | bind to albumin in a glucose-dependent manner; also recorded: glucose-sensitive albumin binding
O=C(O)CNC(=O)c1cc(B(O)O)cc(S(=O)(=O)c2cc(B(O)O)cc(C(F)(F)F)c2)c1 [Example 20] | 1.7 | 31 | – | –
O=C(O)CNC(=O)c1cc(B(O)O)cc(C(=O)c2cc(F)cc(B(O)O)c2)c1 [Example 22, (3-Borono-5-(3-borono-5-fluorobenzoyl)benzoyl)glycine] | 2 | 20 | – | bind to albumin in a glucose-dependent manner
O=C(O)CNC(=O)c1cc(B(O)O)cc(S(=O)(=O)c2cc(F)cc(B(O)O)c2)c1 [Example 24, (3-Borono-5-((3-borono-5-fluorophenyl)sulfonyl)benzoyl)glycine] | 1.2 | 34 | – | –
O=C(O)CN(CCNC(=O)c1cc2c(c(C(F)(F)F)c1)COB2O)C(=O)c1cc2c(c(C(F)(F)F)c1)COB2O [Example 25, N-(1-Hydroxy-4-(trifluoromethyl)-1,3-dihydrobenzo[c][1,2]oxaborole-6-carbonyl)-N-(2-(1-hydroxy-4-(trifluoromethyl)-1,3-dihydrobenzo[c][1,2]oxaborole-6-carboxamido)ethyl)glycine] | 1.3 | 11 | – | bind to albumin in a glucose-dependent manner
O=C(NC[C@H](NC(=O)c1cc2c(c(C(F)(F)F)c1)COB2O)C(=O)O)c1cc2c(c(C(F)(F)F)c1)COB2O [Example 26, (S)-2,3-Bis(1-hydroxy-4-(trifluoromethyl)-1,3-dihydrobenzo[c][1,2]oxaborole-6-carboxamido)propanoic acid] | 0.2 | 10 | – | bind to albumin in a glucose-dependent manner
O=C(O)CCC(=O)N1C[C@H](NC(=O)c2cc3c(c(C(F)(F)F)c2)COB3O)[C@@H](NC(=O)c2cc3c(c(C(F)(F)F)c2)COB3O)C1 [Example 27, 4-((3S,4S)-3,4-Bis(1-hydroxy-4-(trifluoromethyl)-1,3-dihydrobenzo[c][1,2]oxaborole-6-carboxamido)pyrrolidin-1-yl)-4-oxobutanoic acid] | 1.1 | 41 | – | –
O=C(O)CN=S(=O)(c1cc(B(O)O)cc(C(F)(F)F)c1)c1cc(B(O)O)cc(C(F)(F)F)c1 [Example 30, 2-((Bis(3-borono-5-(trifluoromethyl)phenyl)(oxo)-λ6-sulfanylidene)amino)acetic acid] | – | – | 0.06 | –

Second part, led by results:

Kd [1] [mM] | Kd [2] [mM] | Kd [4] [mM] | SMILES | Glucose-dependent binding to albumin (19F-NMR signal) [3]
0.8 | 100 | – | O=C(O)CN(CCNC(=O)c1cc2c(c(C(F)F)c1)COB2O)C(=O)c1cc2c(c(C(F)F)c1)COB2O [Example 31, N-(4-(Difluoromethyl)-1-hydroxy-1,3-dihydrobenzo[c][1,2]oxaborole-6-carbonyl)-N-(2-(4-(difluoromethyl)-1-hydroxy-1,3-dihydrobenzo[c][1,2]oxaborole-6-carboxamido)ethyl)glycine] | –
3.2 | 60.6 | – | O=C(O)CN(CCNC(=O)c1cc(Cl)c2c(c1)B(O)OC2)C(=O)c1cc(Cl)c2c(c1)B(O)OC2 [Example 32, N-(4-Chloro-1-hydroxy-1,3-dihydrobenzo[c][1,2]oxaborole-6-carbonyl)-N-(2-(4-chloro-1-hydroxy-1,3-dihydrobenzo[c][1,2]oxaborole-6-carboxamido)ethyl)glycine] | –
2.1 | 24.9 | – | O=C(O)CN=S(=O)(c1cc(B(O)O)cc(C(F)F)c1)c1cc(B(O)O)cc(C(F)F)c1 [Example 34, 2-((Bis(3-borono-5-(difluoromethyl)phenyl)(oxo)-λ6-sulfanylidene)amino)acetic acid] | –
0.6 | 20 | – | O=C(O)CN=S(=O)(c1cc(Cl)cc(B(O)O)c1)c1cc(Cl)cc(B(O)O)c1 [Example 35, 2-((Bis(3-borono-5-chlorophenyl)(oxo)-λ6-sulfanylidene)amino)acetic acid] | –
4.2 | 13 | – | O=C(O)CN(CCNC(=O)c1cc2c(cc1C(F)(F)F)COB2O)C(=O)c1cc2c(cc1C(F)(F)F)COB2O [Example 37, N-(1-Hydroxy-5-(trifluoromethyl)-1,3-dihydrobenzo[c][1,2]oxaborole-6-carbonyl)-N-(2-(1-hydroxy-5-(trifluoromethyl)-1,3-dihydrobenzo[c][1,2]oxaborole-6-carboxamido)ethyl)glycine] | –
2.4 | 27 | – | O=C(O)CNC(=O)c1cc(B(O)O)cc(S(=O)(=O)c2cccc(B(O)O)c2)c1 [Example 39, (3-Borono-5-((3-boronophenyl)sulfonyl)benzoyl)glycine] | –
1.4 | 4.4 | – | CS(=O)(=O)c1cc(C(=O)NCCN(CC(=O)O)C(=O)c2cc3c(c(S(C)(=O)=O)c2)COB3O)cc2c1COB2O [Example 41, N-(1-Hydroxy-4-(methylsulfonyl)-1,3-dihydrobenzo[c][1,2]oxaborole-6-carbonyl)-N-(2-(1-hydroxy-4-(methylsulfonyl)-1,3-dihydrobenzo[c][1,2]oxaborole-6-carboxamido)ethyl)glycine] | –
0.7 | 22 | – | O=C(O)c1c(C(F)(F)F)cc(B(O)O)cc1S(=O)(=O)c1cc(B(O)O)cc(C(F)(F)F)c1 [Example 43, 4-Borono-2-((3-borono-5-(trifluoromethyl)phenyl)sulfonyl)-6-(trifluoromethyl)benzoic acid] | –
0.8 | 41 | – | O=C(O)CN=S(=O)(c1cc(OC(F)(F)F)cc(B(O)O)c1)c1cc(OC(F)(F)F)cc(B(O)O)c1 [Example 44, 2-((Bis(3-borono-5-(trifluoromethoxy)phenyl)(oxo)-λ6-sulfanylidene)amino)acetic acid] | –
